Data: ChEMBL document CHEMBL1150756, “Isolation of an anti-inflammatory principle from the fruit juice of Ecballium elaterium” (J Nat Prod, 1988)

How the values were obtained:
[1] = Toxicity in po dosed dd mouse; type: organism-based; settings: in vivo
Mus musculus = experiment: Antiinflammatory activity in po dosed dd mouse assessed as inhibition of acetic acid-induced vascular permeability administered 30 mins before acetic acid challenge measured after 20 mins; type: functional

| Structure (SMILES) | LD50 [1] [mg/kg] | ED50 (Mus musculus) [mg/kg] |
| --- | --- | --- |
| CC(=O)OC(C)(C)/C=C/C(=O)[C@](C)(O)[C@H]1[C@H](O)C[C@@]2(C)[C@@H]3CC=C4[C@@H](C[C@H](O)C(=O)C4(C)C)[C@]3(C)C(=O)C[C@]12C [CUCURBITACIN B] | 10.9 |  |
| CC(=O)OC(C)(C)/C=C/C(=O)[C@](C)(O)[C@H]1[C@H](O)C[C@@]2(C)[C@@H]3CC=C4[C@H](C[C@H](O)C(=O)C4(C)C)[C@]3(C)C(=O)C[C@]12C [CUCURBITACIN B] |  | 6.1 |
